Patent US20160312240A1, “MODIFIED PYR/PYL RECEPTORS ACTIVATED BY ORTHOGONAL LIGANDS” (The Regents of the University of California, priority 2010, published 2016)

Experiments:
[1] = system: control lines (Columbia wild-type; wild-type PYL2 overexpression line); test: Seedling germination/growth on fenhexamid; format: in vivo, Arabidopsis; conditions: 100 μM fenhexamid, germinated in the dark, scored two days post-imbibition, FIG. 4
Text: (§1) FIG. 4. Characterization of seedling responses to fenhexamid in 35S::GFP-PYL2 K64R, Y124H, M164I, V67I, V114I transgenic plants. […] Shown are segregating GFP-expressing T2 seedlings from primary transgenic plants (T1). Columbia is the wild-type background and is non-transgenic. Two independent PYL2 K64R, Y124H, M164I, V67I, V114I (“PYL2 MUT”) transgenic lines were characterized in addition to a wild-type PYL2 overexpression line. Seeds from respective lines were germinated in the dark on media containing 100 μM fenhexamid and scored two days post-imbibition.
(§2) To investigate if the fenhexamid response observed in yeast and in vitro experiments would function in plants, transgenic 35S::GFP-PYL2 and 35S::GFP-PYL2^K64R,Y124H,M164I,V67I,V114I plants were constructed using standard molecular cloning methods into a modified version of pEGAD (Cutler et al., Proc Natl Acad Sci U.S.A. 97:3718-3723 (2000)) in which a 6×-histidine tag was added onto the N-terminus of GFP. Transgenic plants were made using the floral-dip method and primary transgenics (T1) identified by screening seedlings by epi-fluorescence using a Leica GFP dissecting microscope. The GFP^+ transgenic plants were grown to maturity and T2 seed collected for further analyses. […]

[2] = system: 35S::GFP-PYL2 K64R,Y124H,M164I,V67I,V114I transgenic plants; test: Seedling germination/growth on fenhexamid; format: in vivo, Arabidopsis; conditions: 100 μM fenhexamid; T2 seedlings expressing mutant PYL2; FIG. 4
Text: as §1, §2

[3] = system: PYL2 K64R,Y124H,M164I,V67I,V114I transgenic plants; test: Water loss from detached aerial rosettes; format: in vivo, Arabidopsis; conditions: 100 μM spray, approximately 16 hours pretreatment, FIG. 6A-C
Procedure: FIGS. 6A-6C. Fenhexamid reduces water loss in transgenic PYL2^K64R, Y124H, M164I, V67I, V114I expressing plants. Shown are three independent water loss experiments (FIGS. 6A-C) conducted on transgenic plants treated with control, 100 μM fenhexamid, or 100 μM ABA containing solutions. Plants were treated as described in the Examples section below and water loss from aerial rosettes was measured after detachment.
Transgenic or control (wild-type) plants were grown under a 16 hr light/8 hr dark cycle for 3 weeks and then treated with either 100 μM (+)-ABA, 100 μM fenhexamid, or control (containing 0.1% Tween-20, 0.1% DMSO). ABA treatments were conducted as a positive control. The plants were sprayed in the evening prior to conducting water loss experiments. The next morning, approximately 16 hours post-treatment, the above-ground rosettes of the experimental samples were collected and transferred to weighing dishes, 8 plants per measured sample, and maintained under ˜90-100 μEinstein/m^2 fluorescent light illumination. Four groups of eight plants were measured per time point at 20 min intervals. The experiments were repeated three times over the course of an eight-week interval. […]

[4] = system: 35S::GFP-PYL2 K64R,Y124H,M164I,V67I,V114I transgenic plants; test: Quantitative RT-PCR of ABA reporter genes in seedlings; format: in vivo, Arabidopsis; conditions: 100 μM fenhexamid for 6 hours, liquid culture; two independent transgenic lines; FIG. 5
Procedure: FIG. 5. Characterization of seedling transcriptional responses to fenhexamid in 35S::GFP-PYL2 K64R, Y124H, M164I, V67I, V114I transgenic plants. GFP-expressing T2 seedlings from respective lines were isolated after germination on petri plates and pre-screened by epi-fluorescence microscopy and subsequently grown in liquid media culture for 7 days, after which seedlings were treated with either 100 μM fenhexamid or control (0.1% DMSO) for 6 hours. RNA was subsequently isolated from the samples and utilized in quantitative RT-PCR experiments using three well-characterized ABA responsive transcripts (as described previously, Park et al., 2009). The primer sequences used for RT-PCR analysis were obtained from Roche and synthesized by Invitrogen. Quantitative RT-PCR was performed using SybrGreen on a BioRad CFX 96 real-time PCR instrument. mRNA copy number is expressed as copy number per nanogram total RNA. Data was normalized using an ACT2 gene. Copy number was established using a standard curve of known concentration of the target genes. […]
To further investigate ABA-response activation, we next tested GFP^+ transgenics (T2 segregants) and appropriate controls for activation of 3 ABA reporter genes (P5CS1, RD29A, and NCED3) in response to exposure to fenhexamid in liquid culture using quantitative RT-PCR methods. […]

[5] = target: T1, 6×-His-PYR1(27-18) (S47P, K59R, Y120H) (Arabidopsis thaliana, UniProt O49686, K59R/S47P/Y120H); test: In vitro PP2C phosphatase activity assay (receptor activation = inhibition of PP2C); format: biochemical; conditions: mutant 27-18; increasing concentrations; 10 mM Mn++ buffer; FIG. 1
T1 construct: 6x-His (N); made in house
T1 sequence (O49686 whole entry S47P/K59R/Y120H): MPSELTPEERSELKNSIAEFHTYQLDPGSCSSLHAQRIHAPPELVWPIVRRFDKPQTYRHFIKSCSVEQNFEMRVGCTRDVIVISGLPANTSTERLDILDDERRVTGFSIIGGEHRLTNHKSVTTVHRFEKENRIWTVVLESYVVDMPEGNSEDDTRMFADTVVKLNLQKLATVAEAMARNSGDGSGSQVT
T1 sequence (Q9CAJ0 23-511, stated change not applied, further chain): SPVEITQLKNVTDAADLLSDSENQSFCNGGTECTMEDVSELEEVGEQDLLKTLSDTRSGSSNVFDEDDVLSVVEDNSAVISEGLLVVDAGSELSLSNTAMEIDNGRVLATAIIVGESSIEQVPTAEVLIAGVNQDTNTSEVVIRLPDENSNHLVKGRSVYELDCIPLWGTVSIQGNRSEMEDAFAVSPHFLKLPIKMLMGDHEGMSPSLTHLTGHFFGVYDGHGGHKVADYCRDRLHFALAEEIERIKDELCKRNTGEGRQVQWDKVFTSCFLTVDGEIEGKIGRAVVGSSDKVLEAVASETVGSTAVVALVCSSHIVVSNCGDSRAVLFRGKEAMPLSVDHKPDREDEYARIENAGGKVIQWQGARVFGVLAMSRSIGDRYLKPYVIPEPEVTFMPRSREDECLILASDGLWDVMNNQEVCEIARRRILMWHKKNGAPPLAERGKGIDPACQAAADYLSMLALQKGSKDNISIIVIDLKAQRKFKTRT
Procedure: FIGS. 1A-1B. PYR1 mutant 27-18 confers responsiveness to fenhexamid but not ABA. Representative PYR1 mutant 27-18 (comprising S47P, K59R, and Y120H substitution mutations) was tested for responsiveness to abscisic acid (“ABA”) (FIG. 1A) and fenhexamid (FIG. 1B) at increasing concentrations as compared to a wild-type PYR1 control using an in vitro PP2C phosphatase activity assay.
To probe orthogonal receptor-ligand interactions further, recombinant protein was expressed for the fenhexamid-responsive mutant 27-18, which has three mutations in PYR1. 6×-His-PYR1(27-18) protein was expressed and purified alongside wild-type PYR1 protein. Both proteins were tested for their ability to inhibit PP2C activity in response to increasing concentrations of either ABA or fenhexamid using phosphatase activity assays, in which activation of the PYR/PYL receptor is monitored by inhibition of PP2C activity (FIG. 1).

With `CC1(C(=O)Nc2ccc(O)c(Cl)c2Cl)CCCCC1` [fenhexamid] the “Post-germination arrest on fenhexamid” value [1] was “do not”, the “Seedling growth on fenhexamid” value [2] was “strong growth inhibition” and the “Water loss from detached rosettes” value [3] was “sufficient to reduce water loss”. The “Activation of 3 ABA reporter genes (P5CS1, RD29A, and NCED3)” value [4] was “substantial induction” and the “Receptor activation (inhibition of PP2C activity)” value [5] was “activated”.
